Earlier results in patent US6153738A (priority 1999, dated 2000).

System: Swiss Webster mice
Conditions: mouse, in vivo

For GCX1 X2 EPWC [contryphan-R], the “symptomatology after intracranial injection into mice” value is given as “stiff-tail syndrome”.
